Data reported in US10160986B2, “Chemoenzymatic synthesis of heparin and heparan sulfate analogs” (The Regents of the University of California, priority 2011, dated 2018).
Read-outs that look alike come from different tables or passages of the source.

Legend:
NahK_ATCC15697 = NahK_ATCC15697 (Bifidobacterium longum, UniProt B7GN78); experiment: Substrate specificity CE assay, NahK_ATCC15697; type: biochemical, Bifidobacterium infantis; conditions: substrate 1 mM
Description: (§1) Substrates specificity assays. GlcNAc, GalNAc, and their derivatives (1 mM) were used as substrates in the presence of ATP (1 mM) and MgCl2 (5 mM) in a Tris-HCl buffer (pH 8.0, 200 mM) to analyze the substrate specificity of NahKs. Two concentrations (0.75 μM or 15 μM) of each NahK were used and the reactions were allowed to proceed for 10 min (for 0.75 μM NahK) or 30 min (for 15 μM NahK) at 37° C. […] All other conditions were the same as for GlcNAc, GalNAc, and their derivatives.
(§2) Capillary electrophoresis (CE) assays. Based on the detection of ADP and ATP in the reaction mixture by a UV detector, a capillary electrophoresis-based method was developed to directly measure the formation of ADP and N-acetylhexosamine-1-phosphate from ATP and N-acetylhexosamine for characterizing the activities of NahKs.

SpGalK = target: T1, SpGalK (Streptococcus pneumoniae serotype 4, UniProt Q97NZ6); experiment: Kinase reaction monitored by CE (ATP to ADP), SpGalK; type: biochemical, Streptococcus pneumoniae TIGR4; conditions: monosaccharide 15 mM, ATP 18 mM, 37° C.
T1 construct: made in house
Description: (§3) Capillary electrophoresis (CE) and thin-layer chromatograph (TLC) assays for kinase reactions. […] These conditions were similar to those used for preparative-scale synthesis. After 1 hr, 4 hr, and 24 hr, an aliquot of 8 μL was withdrawn from each reaction mixture, boiled in a water bath for 5 min and stored at −20° C. until being analyzed by capillary electrophoresis (CE) and TLC. For TLC analysis, 0.5 μL of each sample was directly spotted on TLC plates, developed using suitable developing solvents, and stained with anisaldehyde sugar stain. For CE analysis, 1.5 μL of each sample was diluted into 30 μL and subjected to CE analysis as described above for pH profile studies.

NahK_ATCC55813 = NahK_ATCC55813 (Bifidobacterium longum subsp. longum, UniProt E8MF12, D7V/R348H); type: biochemical; parameters: made in house; host or cells: E. coli BL21(DE3); conditions: substrate 1 mM
Description: as §1, §2

PmHS2 [1] = experiment: Donor substrate specificity of PmHS2 by HPLC (Example 1); type: biochemical, Pasteurella multocida; conditions: acceptor GlcAα2AA 1 mM, UDP-sugar 1 mM, MnCl2 10 mM, pH 6.5, 37° C.
Description: pH profile by HPLC. Typical enzymatic assays were performed in a 10 μl reaction mixture containing a buffer (100 mM) with a pH in the range of 4.0-10.0, UDP-GlcNAc (1 mM), GlcAβ2AA (1 mM), MnCl2 (10 mM) and KfiA (9.0 μg) or PmHS2 (0.25 μg). Buffers used were: Na2HPO4/citric acid, pH 4.0; MES, pH 5.0-6.5; TrisHCl, pH 7.0-9.0; and CAPS, pH 10.0. Reactions were allowed to proceed for 30 min at 37° C. and were quenched by adding ice-cold 10% (v/v) acetonitrile to make 100-fold dilutions. The samples were then kept on ice until an aliquot of 8 μl was injected and analyzed by a Shimadzu LC-2010A system equipped with a membrane on-line degasser, a temperature control unit and a fluorescence detector. A reverse phase Premier C18 column (250 9 4.6 mm I.D., 5 μm particle size, Shimadzu) protected with a C18 guard column cartridge was used. The mobile phase was 25% (v/v) acetonitrile. The fluorescent compounds GlcAβ2AA and GlcNAcα1-4GlcAβ2AA were detected by excitation at 315 nm and emission at 400 nm.
Substrate specificity of KfiA and PmHS2. All reactions were carried out in duplicate at 37° C. in MES (100 mM, pH 6.5) containing an UDP-GlcNAc or its derivatives (1 mM), […] (1 mM), MnCl2 (10 mM) and KfiA ([…] PmHS2 (2.5×10^−2 μg μl^−1). At 30 min, 4 h or 16 h, aliquots of reaction mixture were withdrawn and were quenched by adding ice-cold 10% (v/v) acetonitrile to make 100-fold dilutions. The assays were analyzed by HPLC.

PmHS2 [2] = experiment: Small-scale PmHS2 donor substrate test by TLC; type: biochemical, Pasteurella multocida; conditions: GlcAβ2AAMe 10 mM, donor 15 mM, MgCl2 10 mM, PmHS2 0.5 mg/mL, pH 7.5, 37° C., 12 hr
Description: Prior to applying the one-pot three-enzyme system shown in FIG. 16 to the preparative-scale synthesis of the disaccharides, UDP-GlcNAc and derivatives F17-1-F17-12 were tested as donor substrates for PmHS2 in small-scale reaction containing Tris-HCl buffer (100 mM, pH 7.5), GlcAβ2AAMe (10 mM), UDP-GlcNAc or a derivative (15 mM), MgCl2 (10 mM), and PmHS2 (0.5 mg/mL). The reactions were carried out at 37° C. for 12 hr and analyzed by thin layer chromatography (TLC).

[3] = system: T2, MBP-KfiA-His6 (Escherichia coli); experiment: GlcNAcT donor substrate specificity of MBP-KfiA-His6 (Example 12); type: biochemical, E. coli; conditions: acceptor GlcAβ2AA 1 mM, UDP-sugar 1 mM, MnCl2 10 mM, KfiA 2.8 μg μl^−1, 24 h, 37° C.
T2 construct: made in house; host or cells: E. coli BL21(DE3) co-expressing chaperone plasmid pGro7
Description: (§4) PmHS2, KfiA, and related fusion proteins were expressed, purified, and characterized as described in Example 1. Reactions with UDP-sugars were carried out in duplicate at 37° C. in MES (100 mM, pH 6.5) containing UDP-GlcNAc or one of its derivatives (1 mM), GlcAβ2AA (1 mM), MnCl2 (10 mM) and KfiA (2.8 μg μl^−1) or PmHS2 (1.1 μg μl^−1) for 24 h. The reaction mixtures were stopped by adding ice-cold 10% (v/v) acetonitrile to make 100-fold dilutions and the mixtures were analyzed by HPLC as described for the pH profile.
(§5) Substrate specificity of the GlcNAcT activities of MBP-KfiA-his6 and his6-PmHS2. […] The reactions were easily analyzed by high performance liquid chromatography (HPLC) equipped with a fluorescence detector using an excitation wavelength of 315 nm and an emission wavelength of 400 nm to determine the ratio of the fluorescent disaccharide product formed and the fluorescent GlcAβ2AA acceptor.

His6-PmHS2 = experiment: GlcNAcT donor substrate specificity of His6-PmHS2 (Example 12); type: biochemical, Pasteurella multocida; conditions: acceptor GlcAβ2AA 1 mM, UDP-sugar 1 mM, MnCl2 10 mM, PmHS2 1.1 μg μl^−1, 24 h, 37° C.
Description: as §4, §5

[4] = system: CC(=O)N[C@H]1C(O)O[C@H](CO)[C@@H](O)[C@@H]1O; experiment: purified protein, by the assay type; conditions: other: substrates ATP and GlcNAc, one varied, other fixed at 1 mM, 37° C., 10 min, pH 7.5
Description: (§6) Kinetics by CE assays. Reactions were carried out in duplicate at 37° C. for 10 min in a total volume of 20 μL in Tris-HCl buffer (200 mM, pH 7.5) containing MgCl2 (1 mM), ATP, GlcNAc or GalNAc, and NahK (0.25 μM when GlcNAc and ATP were used as substrates, 0.5 μM when GalNAc and ATP were used as substrates). Apparent kinetic parameters were obtained by varying the ATP concentration from 0.1-5.0 mM (0.1 mM, 0.2 mM, 0.4 mM, 1 mM, 2 mM, and 5 mM) at a fixed concentration of GlcNAc or GalNAc (1 mM), or varying the concentration of GlcNAc or GalNAc (0.1 mM, 0.2 mM, 0.4 mM, 1 mM, 2 mM, and 5 mM) at a fixed concentration of ATP (1 mM) and fitting the data to the Michaelis-Menten equation using Grafit 5.0.

[5] = system: CC(=O)N[C@H]1C(O)O[C@H](CO)[C@H](O)[C@@H]1O; experiment: purified protein, by the assay type; conditions: other: substrates ATP and GalNAc, one varied, other fixed at 1 mM, 37° C., 10 min, pH 7.5
Description: as §6

[6] = system: Nc1ncnc2c1ncn2[C@@H]1O[C@H](COP(=O)(O)OP(=O)(O)OP(=O)(O)O)[C@@H](O)[C@H]1O; experiment: purified protein, by the assay type; conditions: one varied, other fixed at 1 mM, 37° C., 10 min, pH 7.5
Description: as §6

EcGalK = target: T3, EcGalK (Escherichia coli, UniProt P0A6T3); experiment: Kinase reaction monitored by CE (ATP to ADP), EcGalK; type: biochemical; conditions: monosaccharide 15 mM, ATP 18 mM, 37° C.
T3 construct: made in house
Description: as §3

AtGlcAK = target: T4, AtGlcAK (Arabidopsis thaliana, UniProt Q93ZC9, I297M); experiment: AtGlcAK substrate specificity CE assay; type: biochemical; conditions: High enzyme Conc. (2.1 μg in 20 μL, 60 min, 37° C.)
T4 construct: made in house; host or cells: E. coli BL21 (DE3)
Description: Substrate specificity assays. […] The reactions were quenched and assayed with the same method as those for pH profile. All reactions were performed in duplicates.

[7] = 0.75 μM enzyme, 10 min at 37° C., ATP 1 mM
[8] = 15 μM enzyme, 30 min at 37° C., ATP 1 mM (Table 2)
[9] = other: substrates ATP and GalNAc
[10] = other: substrates ATP and GlcNAc

## [N-]=[N+]=NC1C(O)OC(CO)[C@H](O)C1O (stereo partly shown) [GalN3]
NahK_ATCC15697; [7]
  Percentage Conversion: 0%
NahK_ATCC15697; [8]
  Percentage Conversion: 7.6 ± 0.1%
SpGalK; 1 hr
  ATP Conversion: 45.7%
SpGalK; 4 hr
  ATP Conversion: 79.0%
SpGalK; 24 hr
  ATP Conversion: 81.2%
NahK_ATCC55813; [7]
  Percentage Conversion: 0%
NahK_ATCC55813; [8]
  Percentage Conversion: 4.3 ± 0.1%

## CC(=O)NC1C(O)OC(CO)[C@H](O)[C@@H]1O (stereo partly shown) [GalNAc, N-acetylgalactosamine]
NahK_ATCC15697; [7]
  Percentage Conversion: 12.5 ± 0.1%
SpGalK; 1 hr
  ATP Conversion: 11.8%
SpGalK; 4 hr
  ATP Conversion: 24.7%
SpGalK; 24 hr
  ATP Conversion: 69.5%
NahK_ATCC55813; [7]
  Percentage Conversion: 19.9 ± 0.1%

## CC(=O)N[C@H]1[C@@H](OP(=O)(O)OP(=O)(O)OC[C@H]2O[C@@H](n3ccc(=O)[nH]c3=O)[C@H](O)[C@@H]2O)O[C@H](CN=[N+]=[N-])[C@@H](O)[C@@H]1O [Compound F17-8, Uridine 5′-diphospho-2-acetamido-6-azido-2,6-dideoxy-α-D-glucopyranoside]
PmHS2 [1]
  donor substrate for PmHS2: is a substrate for PmHS2
PmHS2 [2]
  donor substrate for PmHS2: tolerable donor substrates
[3]
  donor substrate for MBP-KfiA-His6: can be used by MBP-KfiA-His6
His6-PmHS2
  donor substrate for the α1-4GlcNAcT activity of His6-PmHS2: suitable donor substrates for His6-PmHS2

## NahK_ATCC55813 (Bifidobacterium longum subsp. longum JCM 1217; D7V/R348H)
[4]
  Km: 60 ± 10 µM
  kcat: 1.1 ± 0.1 s⁻¹
  kcat/Km: 18300 M⁻¹ s⁻¹
[5]
  Km: 80 ± 30 µM
  kcat: 0.57 ± 0.04 s⁻¹
  kcat/Km: 7100 M⁻¹ s⁻¹

## NahK_ATCC15697 (Bifidobacterium longum subsp. infantis ATCC 15697 = JCM 1222 = DSM 20088)
[4]
  Km: 60 ± 10 µM
  kcat: 0.95 ± 0.01 s⁻¹
  kcat/Km: 15800 M⁻¹ s⁻¹
[5]
  Km: 90 ± 50 µM
  kcat: 0.46 ± 0.07 s⁻¹
  kcat/Km: 5100 M⁻¹ s⁻¹
[6]; [9]
  Km: 80 ± 30 µM
  kcat: 0.38 ± 0.02 s⁻¹
  kcat/Km: 4800 M⁻¹ s⁻¹
[6]; [10]
  Km: 100 ± 30 µM
  kcat: 1.1 ± 0.1 s⁻¹
  kcat/Km: 11000 M⁻¹ s⁻¹

## OCC1OC(O)CC(O)[C@H]1O (stereo partly shown) [T6-2 2-deoxyGal, 2-deoxyGal]
SpGalK; 1 hr
  ATP Conversion: 80.3%
SpGalK; 4 hr
  ATP Conversion: 89.5%
EcGalK; 1 hr
  ATP Conversion: 78.5%
EcGalK; 4 hr
  ATP Conversion: 87.6%

## N[C@H]1C(O)O[C@H](CO)[C@H](O)[C@@H]1O (stereo partly shown) [T6-3 GalNH2, galactosamine]
EcGalK; 1 hr
  ATP Conversion: 90.2%

## O=C[C@H](O)[C@@H](O)[C@H](O)CO [Xyl, xylose]
AtGlcAK
  Percentage conversion of ATP: <5%
